Values of other authors, collected in patent US20120034285A1, “Mosquito Net with Dinotefuran and PBO for Killing Mosquitoes, Especially Mosquitoes with Pyrethroid Resistance” (priority 2009, published 2012).

Assays:
Aedes aegypti = settings: in vivo
cockroaches = settings: PBO added as an oxidase inhibitor; Dinotefuran injected into the stomach
[1] = system: mosquito strain VKPR (also termed VKPER) of the An. gambiae species; settings: strain with mutation for knockdown-resistance against pyrethroids
Anopheles gambiae = settings: in vivo
mosquitoes = settings: in contrast to pyrethroids; also mentioned in JP 10 139604
Culex quinquefasciatus = settings: in vivo

CN/C(=N/CC1CCOC1)N[N+](=O)[O-] (stereo not drawn) [Dinotefuran]
lethal effect (Aedes aegypti): lethal effect | toxicity on cockroaches (cockroaches): increased toxicity | lethal effect [1]: lethal effect | lethal effect (Anopheles gambiae): lethal effect | mosquito repellent effect (mosquitoes): does not have a mosquito repellent effect | lethal effect (Culex quinquefasciatus): lethal effect
